Results on 18 compounds are retold here after ChEMBL document CHEMBL1134903, “Synthesis and SAR of azalide 3,6-ketal aromatic derivatives as potent Gram-positive and Gram-negative antibacterial agents” (Bioorg Med Chem Lett, 2002).

Values after ≈ are worked out from the molar mass of the structure shown. A value given as a limit tells only on which side of the number the result lay.

Format in all cases: functional
For one assay, the system named is Escherichia coli. The experiment in a line: Minimum inhibitory concentration against Escherichia coli.
The next assay has as its system Pasteurella multocida. The assay is described as follows: Minimum inhibitory concentration against Pasteurella multocida.
Assay [1] has as its system Staphylococcus aureus. The assay is described as follows: Colony forming units of Staphylococcus aureus intramammary infection (IMI) model was determined at a dose of 15 mg/kg.
In assay [2] the test system is Staphylococcus aureus. The assay is described as follows: Effective dose required to inhibit Staphylococcus aureus intraperitoneal (IP) infection model.
The test system of assay [3] is Staphylococcus aureus. The assay is described as follows: Minimum inhibitory concentration against Staphylococcus aureus.

As to `CC[C@H]1OC(=O)[C@H](C)[C@H]2OC3(CCN(C(=O)c4ccccc4)CC3)O[C@](C)(C[C@@H](C)CN[C@H](C)[C@@H](O)[C@]1(C)O)[C@H](O[C@@H]1O[C@H](C)C[C@H](N(C)C)[C@H]1O)[C@H]2C`, the MIC in the assay on Escherichia coli was 1.56 µg/mL (≈ 2.05 µM); against Pasteurella multocida it was 0.1 µg/mL (≈ 0.131 µM); against Staphylococcus aureus [3], 0.78 µg/mL (≈ 1.02 µM). Also, in the assay with Staphylococcus aureus [1], the “Log CFU” value is listed as 2.9. This compound also came in with an ED50 in the assay on Staphylococcus aureus [2] of 20 mg/kg.

For the compound `CC[C@H]1OC(=O)[C@H](C)[C@H]2OC3(CCN(C(=O)c4ccc5ccccc5n4)CC3)O[C@](C)(C[C@@H](C)CN(C)[C@H](C)[C@@H](O)[C@]1(C)O)[C@H](O[C@@H]1O[C@H](C)C[C@H](N(C)C)[C@H]1O)[C@H]2C`, the MIC in the assay on Escherichia coli worked out at 6.25 µg/mL (≈ 7.56 µM); in the assay on Pasteurella multocida, 0.1 µg/mL (≈ 0.121 µM); with Staphylococcus aureus [3], 0.39 µg/mL (≈ 0.472 µM). Besides, the “Log CFU” value with Staphylococcus aureus [1] is given as 9.7. In addition, the median effective dose (ED50) in the assay with Staphylococcus aureus [2] was > 20 mg/kg.

For the compound `CC[C@H]1OC(=O)[C@H](C)[C@H]2OC3(CCN(Cc4ccccn4)CC3)O[C@](C)(C[C@@H](C)CN(C)[C@H](C)[C@@H](O)[C@]1(C)O)[C@H](O[C@@H]1O[C@H](C)C[C@H](N(C)C)[C@H]1O)[C@H]2C`, the MIC is 0.2 µg/mL (≈ 0.262 µM) against Escherichia coli, 0.03 µg/mL (≈ 0.0393 µM) in the assay on Pasteurella multocida and 0.78 µg/mL (≈ 1.02 µM) against Staphylococcus aureus [3]. Further, the “Log CFU” value with Staphylococcus aureus [1] was determined as 1.9. Besides, it took a dose of 17 mg/kg to reach the 50% effect level in the assay with Staphylococcus aureus [2] (ED50).

Consider `CC[C@H]1OC(=O)[C@H](C)[C@H]2OC3(CCN(C(=O)c4ccccn4)CC3)O[C@](C)(C[C@@H](C)CN[C@H](C)[C@@H](O)[C@]1(C)O)[C@H](O[C@@H]1O[C@H](C)C[C@H](N(C)C)[C@H]1O)[C@H]2C`, for which the MIC against Escherichia coli was 1.56 µg/mL (≈ 2.04 µM); with Pasteurella multocida, 0.1 µg/mL (≈ 0.131 µM); with Staphylococcus aureus [3] it was 0.78 µg/mL (≈ 1.02 µM). Further, the “Log CFU” value in the assay with Staphylococcus aureus [1] turned out to be 3.5. In the assay on Staphylococcus aureus [2], this compound yielded an ED50 of 7.6 mg/kg.

For the compound `CC[C@H]1OC(=O)[C@H](C)[C@H]2OC3(CCN(CCc4ccc5ccccc5n4)CC3)O[C@](C)(C[C@@H](C)CN[C@H](C)[C@@H](O)[C@]1(C)O)[C@H](O[C@@H]1O[C@H](C)C[C@H](N(C)C)[C@H]1O)[C@H]2C`, the MIC came to 0.78 µg/mL (≈ 0.959 µM) with Escherichia coli, 0.03 µg/mL (≈ 0.0369 µM) in the assay with Pasteurella multocida and 0.2 µg/mL (≈ 0.246 µM) with Staphylococcus aureus [3]. The “Log CFU” value with Staphylococcus aureus [1] amounted to 5.2. Besides, in the assay on Staphylococcus aureus [2], the 50% effect level (ED50) was put at a dose of 22 mg/kg.

Turning to `CC[C@H]1OC(=O)[C@H](C)[C@H]2OC3(CCN(C(=O)c4ccco4)CC3)O[C@](C)(C[C@@H](C)CN[C@H](C)[C@@H](O)[C@]1(C)O)[C@H](O[C@@H]1O[C@H](C)C[C@H](N(C)C)[C@H]1O)[C@H]2C`, the MIC with Escherichia coli was 1.56 µg/mL (≈ 2.07 µM); against Pasteurella multocida, 0.05 µg/mL (≈ 0.0665 µM); against Staphylococcus aureus [3], 0.78 µg/mL (≈ 1.04 µM). The “Log CFU” value in the assay with Staphylococcus aureus [1] is 0.4. Also, the ED50 with Staphylococcus aureus [2] came out at 12 mg/kg.

Turning to `CC[C@H]1OC(=O)[C@H](C)[C@H]2OC3(CCN(C(=O)c4cccnc4)CC3)O[C@](C)(C[C@@H](C)CN(C)[C@H](C)[C@@H](O)[C@]1(C)O)[C@H](O[C@@H]1O[C@H](C)C[C@H](N(C)C)[C@H]1O)[C@H]2C`, the MIC came to 3.13 µg/mL (≈ 4.03 µM) against Escherichia coli, 0.1 µg/mL (≈ 0.129 µM) in the assay with Pasteurella multocida and 1.56 µg/mL (≈ 2.01 µM) in the assay on Staphylococcus aureus [3]. For the same compound, the “Log CFU” value with Staphylococcus aureus [1] is listed as 2.6. Besides, the ED50 in the assay with Staphylococcus aureus [2] is 10 mg/kg.

For the compound `CC[C@H]1OC(=O)[C@H](C)[C@H]2OC3(CCN(C(=O)c4cccnc4Cl)CC3)O[C@](C)(C[C@@H](C)CN[C@H](C)[C@@H](O)[C@]1(C)O)[C@H](O[C@@H]1O[C@H](C)C[C@H](N(C)C)[C@H]1O)[C@H]2C`, the MIC amounted to 3.13 µg/mL (≈ 3.93 µM) in the assay with Escherichia coli, 0.1 µg/mL (≈ 0.125 µM) against Pasteurella multocida and 1.56 µg/mL (≈ 1.96 µM) with Staphylococcus aureus [3]. For the same compound, the “Log CFU” value in the assay with Staphylococcus aureus [1] was determined as 4.4. This compound gave an ED50 in the assay on Staphylococcus aureus [2] of 9.4 mg/kg.

As to `CC[C@H]1OC(=O)[C@H](C)[C@H]2OC3(CCN(Cc4ccccn4)CC3)O[C@](C)(C[C@@H](C)CN[C@H](C)[C@@H](O)[C@]1(C)O)[C@H](O[C@@H]1O[C@H](C)C[C@H](N(C)C)[C@H]1O)[C@H]2C`, the MIC was 0.2 µg/mL (≈ 0.267 µM) in the assay on Escherichia coli, 0.03 µg/mL (≈ 0.0401 µM) in the assay with Pasteurella multocida and 0.6 µg/mL (≈ 0.801 µM) in the assay with Staphylococcus aureus [3]. Besides, the “Log CFU” value in the assay on Staphylococcus aureus [1] was 1.1. In addition, in the assay on Staphylococcus aureus [2], the ED50 was < 5 mg/kg.

As to `CC[C@H]1OC(=O)[C@H](C)[C@H]2OC3(CCN(C(=O)c4cnccn4)CC3)O[C@](C)(C[C@@H](C)CN[C@H](C)[C@@H](O)[C@]1(C)O)[C@H](O[C@@H]1O[C@H](C)C[C@H](N(C)C)[C@H]1O)[C@H]2C`, the results for the MIC in the assay on Escherichia coli, in the assay on Pasteurella multocida and with Staphylococcus aureus [3] were 1.56 µg/mL (≈ 2.04 µM), 0.1 µg/mL (≈ 0.131 µM) and 1.56 µg/mL (≈ 2.04 µM), respectively. The “Log CFU” value in the assay with Staphylococcus aureus [1] was found to be 1.3. In the assay with Staphylococcus aureus [2], the ED50 was found to be 6.1 mg/kg.

`CC[C@H]1OC(=O)[C@H](C)[C@H]2OC3(CCN(C(=O)c4cccn4C)CC3)O[C@](C)(C[C@@H](C)CN[C@H](C)[C@@H](O)[C@]1(C)O)[C@H](O[C@@H]1O[C@H](C)C[C@H](N(C)C)[C@H]1O)[C@H]2C`: the MIC against Escherichia coli is 1.56 µg/mL (≈ 2.04 µM); against Pasteurella multocida, 0.1 µg/mL (≈ 0.131 µM); against Staphylococcus aureus [3] it was 0.78 µg/mL (≈ 1.02 µM). In addition, the “Log CFU” value with Staphylococcus aureus [1] was 2.4. The ED50 in the assay on Staphylococcus aureus [2] was 19 mg/kg.

Consider `CC[C@H]1OC(=O)[C@H](C)[C@H]2OC3(CCN(C(=O)c4cccc(O)n4)CC3)O[C@](C)(C[C@@H](C)CN[C@H](C)[C@@H](O)[C@]1(C)O)[C@H](O[C@@H]1O[C@H](C)C[C@H](N(C)C)[C@H]1O)[C@H]2C`, for which the MIC against Escherichia coli came to 6.25 µg/mL (≈ 8.02 µM); in the assay on Pasteurella multocida, 0.3 µg/mL (≈ 0.385 µM); against Staphylococcus aureus [3], 3.13 µg/mL (≈ 4.02 µM). In addition, the “Log CFU” value with Staphylococcus aureus [1] is 9.7. The ED50 in the assay with Staphylococcus aureus [2] came to 19 mg/kg.

In the case of `CC[C@H]1OC(=O)[C@H](C)[C@H]2OC3(CCN(C(=O)c4cccc(OC)c4)CC3)O[C@](C)(C[C@@H](C)CN[C@H](C)[C@@H](O)[C@]1(C)O)[C@H](O[C@@H]1O[C@H](C)C[C@H](N(C)C)[C@H]1O)[C@H]2C`, the MIC against Escherichia coli was determined as 3.13 µg/mL (≈ 3.95 µM); in the assay with Pasteurella multocida, 0.1 µg/mL (≈ 0.126 µM); in the assay with Staphylococcus aureus [3] it was 0.78 µg/mL (≈ 0.985 µM). The “Log CFU” value with Staphylococcus aureus [1] is 5.6. In the assay on Staphylococcus aureus [2], this compound showed an ED50 of 20 mg/kg.

For `CC[C@H]1OC(=O)[C@H](C)[C@H]2OC3(CCN(CCc4ccc(Cl)cc4)CC3)O[C@](C)(C[C@@H](C)CN(C)[C@H](C)[C@@H](O)[C@]1(C)O)[C@H](O[C@@H]1O[C@H](C)C[C@H](N(C)C)[C@H]1O)[C@H]2C`, the results for the MIC in the assay on Escherichia coli, against Pasteurella multocida and in the assay on Staphylococcus aureus [3] were 0.2 µg/mL (≈ 0.247 µM), 0.03 µg/mL (≈ 0.037 µM) and 0.39 µg/mL (≈ 0.481 µM), respectively. Moreover, the “Log CFU” value in the assay with Staphylococcus aureus [1] is reported as 9.7. In the assay on Staphylococcus aureus [2], the ED50 is > 20 mg/kg.

On to `CC[C@H]1OC(=O)[C@H](C)[C@H]2OC3(CCN(C(=O)c4ccnc5ccccc45)CC3)O[C@](C)(C[C@@H](C)CN[C@H](C)[C@@H](O)[C@]1(C)O)[C@H](O[C@@H]1O[C@H](C)C[C@H](N(C)C)[C@H]1O)[C@H]2C`, for which the MIC against Escherichia coli is 6.25 µg/mL (≈ 7.69 µM); in the assay on Pasteurella multocida it was 0.1 µg/mL (≈ 0.123 µM); against Staphylococcus aureus [3], 0.39 µg/mL (≈ 0.48 µM). The “Log CFU” value in the assay with Staphylococcus aureus [1] is reported as 1.9. The compound also came in with an ED50 in the assay with Staphylococcus aureus [2] of 7.6 mg/kg.

Turning to `CC[C@H]1OC(=O)[C@H](C)[C@H]2OC3(CCN(C(=O)c4ccc5ccccc5n4)CC3)O[C@](C)(C[C@@H](C)CN[C@H](C)[C@@H](O)[C@]1(C)O)[C@H](O[C@@H]1O[C@H](C)C[C@H](N(C)C)[C@H]1O)[C@H]2C`, the results for the MIC against Escherichia coli, in the assay with Pasteurella multocida and in the assay on Staphylococcus aureus [3] were 1.56 µg/mL (≈ 1.92 µM), 0.05 µg/mL (≈ 0.0615 µM) and 0.2 µg/mL (≈ 0.246 µM), respectively. Further, the “Log CFU” value with Staphylococcus aureus [1] is 1.9. The compound further registered an ED50 with Staphylococcus aureus [2] of 14 mg/kg.

As for `CC[C@H]1OC(=O)[C@H](C)[C@H]2OC3(CCN(C(=O)c4ccccn4)CC3)O[C@](C)(C[C@@H](C)CN(C)[C@H](C)[C@@H](O)[C@]1(C)O)[C@H](O[C@@H]1O[C@H](C)C[C@H](N(C)C)[C@H]1O)[C@H]2C`, the MIC against Escherichia coli stood at 1.56 µg/mL (≈ 2.01 µM); against Pasteurella multocida, 0.1 µg/mL (≈ 0.129 µM); against Staphylococcus aureus [3], 1.56 µg/mL (≈ 2.01 µM). Besides, in the assay with Staphylococcus aureus [1], the “Log CFU” value is recorded as 2.9. The compound further registered an ED50 in the assay on Staphylococcus aureus [2] of 12 mg/kg.

In the case of `CC[C@H]1OC(=O)[C@H](C)[C@H]2OC3(CCN(C(=O)c4ccoc4)CC3)O[C@](C)(C[C@@H](C)CN[C@H](C)[C@@H](O)[C@]1(C)O)[C@H](O[C@@H]1O[C@H](C)C[C@H](N(C)C)[C@H]1O)[C@H]2C`, the MIC in the assay with Escherichia coli came to 0.78 µg/mL (≈ 1.04 µM); against Pasteurella multocida it was 0.05 µg/mL (≈ 0.0665 µM); in the assay with Staphylococcus aureus [3], 0.78 µg/mL (≈ 1.04 µM). The “Log CFU” value with Staphylococcus aureus [1] is recorded as 2.6. The compound further registered an ED50 in the assay with Staphylococcus aureus [2] of 11 mg/kg.

A word on the MIC: it is the least concentration at which growth counts as inhibited. Higher therefore signals weaker potency. In general, ED50 refers to the midpoint of the dose-response relation. Read a low ED50 as greater potency.
